For assay [1], the target named is Chymotrypsinogen A (Bos taurus) (UniProt P00766). In words: Compound was evaluated for the inhibition of Chymotrypsinogen.
Assay [2] addresses T1, Chymotrypsin-like elastase family member 2A (Sus scrofa) (UniProt P08419).
T1 sequence (whole entry): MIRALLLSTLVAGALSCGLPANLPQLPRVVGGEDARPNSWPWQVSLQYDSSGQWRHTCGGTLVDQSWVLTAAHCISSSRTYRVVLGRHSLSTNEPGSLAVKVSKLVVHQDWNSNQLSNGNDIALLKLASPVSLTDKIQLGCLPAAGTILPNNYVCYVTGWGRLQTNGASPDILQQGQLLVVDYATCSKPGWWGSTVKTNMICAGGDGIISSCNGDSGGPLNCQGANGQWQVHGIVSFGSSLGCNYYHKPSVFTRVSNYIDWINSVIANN
Description: Compound was evaluated for the inhibition of porcine pancreatic elastase (PPE).

Assay [3] has as its target T2, Neutrophil elastase (Homo sapiens) (UniProt P08246).
T2 sequence (whole entry): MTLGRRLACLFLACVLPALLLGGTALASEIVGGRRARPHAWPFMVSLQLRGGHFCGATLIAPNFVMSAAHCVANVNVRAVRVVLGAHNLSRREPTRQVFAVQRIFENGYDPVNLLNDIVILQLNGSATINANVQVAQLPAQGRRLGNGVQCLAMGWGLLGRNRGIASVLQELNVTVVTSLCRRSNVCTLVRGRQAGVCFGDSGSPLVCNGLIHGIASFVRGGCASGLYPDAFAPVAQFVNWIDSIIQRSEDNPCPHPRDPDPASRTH
In words: Compound was evaluated for the inhibition of human leukocyte elastase (HLE).

Experimental findings from ChEMBL document CHEMBL1129761, “2-[(Alkylsulfonyl)oxy]-6-substituted-1H-isoindole-1,3(2H)-dione mechanism-based inhibitors of human leukocyte elastase” (Bioorg Med Chem Lett, 1996) are described below.

As to `Cc1ccc(S(=O)(=O)ON2C(=O)c3ccccc3C2=O)cc1`, the k obs / 1 in assay [1] was determined as 90000 M⁻¹ s⁻¹; in assay [2] it was 1400 M⁻¹ s⁻¹; in assay [3], 78000 M⁻¹ s⁻¹.
For `CS(=O)(=O)ON1C(=O)c2ccccc2C1=O`, the k obs / 1 is 2700 M⁻¹ s⁻¹ in assay [1], 6500 M⁻¹ s⁻¹ in assay [2] and 61000 M⁻¹ s⁻¹ in assay [3].
For `CS(=O)(=O)ON1C(=O)c2ccc(N)cc2C1=O`, the values for the k obs / 1 in assay [1], in assay [2] and in assay [3] were 12000 M⁻¹ s⁻¹, 24000 M⁻¹ s⁻¹ and 110000 M⁻¹ s⁻¹, respectively.
As for `CC(C)S(=O)(=O)ON1C(=O)c2ccc(N)cc2C1=O`, the k obs / 1 in assay [1] was 11000 M⁻¹ s⁻¹; in assay [2], 22000 M⁻¹ s⁻¹; in assay [3], 82000 M⁻¹ s⁻¹.
Consider `Cc1ccc2c(c1)C(=O)N(OS(C)(=O)=O)C2=O`, for which the k obs / 1 is 16000 M⁻¹ s⁻¹ in assay [1], 21000 M⁻¹ s⁻¹ in assay [2] and 30000 M⁻¹ s⁻¹ in assay [3].
With `Cc1ccc(S(=O)(=O)ON2C(=O)c3ccc(C)cc3C2=O)cc1`, the k obs / 1 in assay [1] stood at 27000 M⁻¹ s⁻¹; in assay [2] it was 7400 M⁻¹ s⁻¹; in assay [3] it was 58000 M⁻¹ s⁻¹.
In the case of `CC(C)S(=O)(=O)ON1C(=O)c2ccccc2C1=O`, the figures for the k obs / 1 in assay [1], in assay [2] and in assay [3] were 160000 M⁻¹ s⁻¹, 370 M⁻¹ s⁻¹ and 63000 M⁻¹ s⁻¹, respectively.
